Test results as given in US20250295732A1, “COMPOSITIONS AND METHODS FOR ACTIVATING INNATE IMMUNITY” (Zoetis Services LLC, priority 2021, published 2025).

Assays:
[1] = system: bovine monocyte-derived macrophages; assay: microRNASeq analysis; assay type: cell-based; settings: CATH2 vs vehicle
Text: (§1) Peripheral blood mononuclear cells (PBMC) were isolated from bovine blood using ficoll gradients. Bovine monocytes were isolated from PBMC using magnetic assisted cell sorting to positively select for CD14+ cells using anti-human CD14 microbeads (Miltenyi Biotec). Purified bovine blood CD14+ monocytes were differentiated into macrophages using an M2-skewing differentiation factor (recombinant bovine M-CSF) over 7 days then exposed to CATH2 or a vehicle control in the presence of bovine casein to mimic aspects of the mammary gland for 24 hr. Following treatment, vehicle and drug were removed and cells were washed to eliminate residual drug and monocyte-derived macrophages were rested for 3 days in order to assess reprogramming. Following the rest period, a subset of vehicle- and CATH2-trained monocyte-derived macrophages were assessed for epigenetic and transcriptomic changes. The remaining cells were challenged with LPS or E. coli bioparticle labeled with pH-sensitive pHrodo green dye and key parameters for macrophage activation/immune response were assessed including glycolytic activity, surface marker expression, gene expression, cytokine production, phagocytosis, reactive nitrogen species production, and miRNA profiling.
Bovine monocyte-derived macrophages were lysed in Buffer RLT with addition of (3-mercaptoethanol (QIAGEN) and stored at −80° C. until miRNA/mRNA isolations could be performed. Total RNA including miRNA was isolated from cell lysates using the miRNeasy Tissues/Cells Advanced kit (QIAGEN) following the manufacturer's instructions. mRNA and miRNA libraries were prepared using the TruSeq Stranded mRNA Library Prep Kit (Illumina) and QIAseq miRNA Library Kit, respectively (QIAGEN) according to the manufacturer's instructions. Libraries were run on the Illumina NextSeq550 System. Sequencing data were analyzed using CLC Genomics Workbench software and QIAGEN Ingenuity Pathway Analysis (IPA).

[2] = system: bovine monocyte-derived macrophages; assay: LPS-induced lactate production (LactateGlo); assay type: cell-based; settings: CATH2 24 hr, removal, 3-day rest, LPS 24 hours; vs vehicle
Text: as §1
Lactate levels in cell culture supernatant were quantified using LactateGlo® (Promega) according to manufacturer's instructions.

[3] = 3-day rest, 8-hour post-LPS, Experiment A
[4] = 3-day rest, 8-hour post-LPS, Experiment B
[5] = 3-day rest, 24-hour post-LPS, Experiment A
[6] = 3-day rest, 24-hour post-LPS, Experiment B
[7] = after 3-day rest, prior to LPS challenge

RFGRFLRKIRRFRPKVTITIQGSARFG [CATH2, cathelicidin 2 peptide]
bta-miR-146b Fold change [1, 3]: 2.85 | bta-miR-146b Log2 fold change [1, 3]: 1.51 | bta-miR-148a Fold change [1, 3]: −1.79 | bta-miR-148a Log2 fold change [1, 3]: −0.84 | bta-miR-181b Fold change [1, 3]: 1.60 | bta-miR-181b Log2 fold change [1, 3]: 0.68 | bta-miR-1814c Fold change [1, 3]: −1.77 | bta-miR-1814c Log2 fold change [1, 3]: −0.83 | hsa-miR-155-5p Fold change [1, 3]: 1.89 | hsa-miR-155-5p Log2 fold change [1, 3]: 0.92 | bta-miR-146b Fold change [1, 4]: 1.56 | bta-miR-146b Log2 fold change [1, 4]: 0.64 | bta-miR-148a Fold change [1, 4]: −1.44 | bta-miR-148a Log2 fold change [1, 4]: −0.52 | bta-miR-181b Fold change [1, 4]: 1.76 | bta-miR-181b Log2 fold change [1, 4]: 0.82 | bta-miR-1814c Fold change [1, 4]: −2.05 | bta-miR-1814c Log2 fold change [1, 4]: −1.04 | hsa-miR-155-5p Fold change [1, 4]: 2.20 | hsa-miR-155-5p Log2 fold change [1, 4]: 1.14 | bta-miR-146b Fold change [1, 5]: 4.52 | bta-miR-146b Log2 fold change [1, 5]: 2.18 | hsa-miR-146b-5p Fold change [1, 5]: 2.27 | hsa-miR-146b-5p Log2 fold change [1, 5]: 1.18 | bta-miR-146b Fold change [1, 6]: 4.34 | bta-miR-146b Log2 fold change [1, 6]: 2.12 | hsa-miR-146b-5p Fold change [1, 6]: 1.71 | hsa-miR-146b-5p Log2 fold change [1, 6]: 0.77 | bta-miR-27a-3p Fold change [1, 7]: −1.31 | bta-miR-27a-3p Log fold change [1, 7]: −0.39 | bta-miR-29a Fold change [1, 7]: −1.36 | bta-miR-29a Log fold change [1, 7]: −0.44 | bta-miR-29c Fold change [1, 7]: −1.45 | bta-miR-29c Log fold change [1, 7]: −0.54 | bta-miR-30f Fold change [1, 7]: 1.57 | bta-miR-30f Log fold change [1, 7]: 0.65 | bta-miR-92b Fold change [1, 7]: 1.52 | bta-miR-92b Log fold change [1, 7]: 0.60 | bta-miR-101 Fold change [1, 7]: −1.47 | bta-miR-101 Log fold change [1, 7]: −0.55 | bta-miR-142-5p Fold change [1, 7]: −1.43 | bta-miR-142-5p Log fold change [1, 7]: −0.51 | bta-miR-148a Fold change [1, 7]: −1.78 | bta-miR-148a Log fold change [1, 7]: −0.83 | bta-miR-148b Fold change [1, 7]: −1.43 | bta-miR-148b Log fold change [1, 7]: −0.51 | bta-miR-149-5p Fold change [1, 7]: 1.43 | bta-miR-149-5p Log fold change [1, 7]: 0.52 | bta-miR-181b Fold change [1, 7]: 1.38 | bta-miR-181b Log fold change [1, 7]: 0.47 | bta-miR-184 Fold change [1, 7]: 2.61 | bta-miR-184 Log fold change [1, 7]: 1.38 | bta-miR-187 Fold change [1, 7]: −2.07 | bta-miR-187 Log fold change [1, 7]: −1.05 | bta-miR-193a-5p Fold change [1, 7]: 1.60 | bta-miR-193a-5p Log fold change [1, 7]: 0.68 | bta-miR-197 Fold change [1, 7]: 1.37 | bta-miR-197 Log fold change [1, 7]: 0.46 | bta-miR-199a-3p Fold change [1, 7]: 1.92 | bta-miR-199a-3p Log fold change [1, 7]: 0.94 | bta-miR-296-5p Fold change [1, 7]: 2.10 | bta-miR-296-5p Log fold change [1, 7]: 1.07 | bta-miR-320a Fold change [1, 7]: 1.68 | bta-miR-320a Log fold change [1, 7]: 0.75 | bta-miR-326 Fold change [1, 7]: 1.47 | bta-miR-326 Log fold change [1, 7]: 0.55 | bta-miR-331-3p Fold change [1, 7]: 1.61 | bta-miR-331-3p Log fold change [1, 7]: 0.69 | bta-miR-365-3p Fold change [1, 7]: 1.59 | bta-miR-365-3p Log fold change [1, 7]: 0.67 | bta-miR-374a Fold change [1, 7]: −1.59 | bta-miR-374a Log fold change [1, 7]: −0.67 | bta-miR-500 Fold change [1, 7]: 1.43 | bta-miR-500 Log fold change [1, 7]: 0.51 | bta-miR-652 Fold change [1, 7]: 1.46 | bta-miR-652 Log fold change [1, 7]: 0.54 | bta-miR-877 Fold change [1, 7]: 1.93 | bta-miR-877 Log fold change [1, 7]: 0.95 | bta-miR-1249 Fold change [1, 7]: 1.43 | bta-miR-1249 Log fold change [1, 7]: 0.52 | bta-miR-1260b Fold change [1, 7]: 1.63 | bta-miR-1260b Log fold change [1, 7]: 0.70 | bta-miR-1307 Fold change [1, 7]: 1.49 | bta-miR-1307 Log fold change [1, 7]: 0.57 | bta-miR-2285bf Fold change [1, 7]: −1.52 | bta-miR-2285bf Log fold change [1, 7]: −0.61 | bta-miR-2447 Fold change [1, 7]: 1.92 | bta-miR-2447 Log fold change [1, 7]: 0.94 | bta-miR-6523a Fold change [1, 7]: 1.39 | bta-miR-6523a Log fold change [1, 7]: 0.47 | bta-miR-6529a Fold change [1, 7]: 1.32 | bta-miR-6529a Log fold change [1, 7]: 0.40 | hsa-let-7d-3p Fold change [1, 7]: 1.62 | hsa-let-7d-3p Log fold change [1, 7]: 0.70 | hsa-miR-30e-5p Fold change [1, 7]: −1.45 | hsa-miR-30e-5p Log fold change [1, 7]: −0.54 | hsa-miR-16-1-3p Fold change [1, 7]: −2.57 | hsa-miR-16-1-3p Log fold change [1, 7]: −1.36 | hsa-miR-21-5p Fold change [1, 7]: −1.33 | hsa-miR-21-5p Log fold change [1, 7]: −0.41 | hsa-miR-29a-3p Fold change [1, 7]: −1.32 | hsa-miR-29a-3p Log fold change [1, 7]: 0.40 | hsa-miR-29b-1-5p Fold change [1, 7]: 1.90 | hsa-miR-29b-1-5p Log fold change [1, 7]: 0.92 | hsa-miR-142-3p Fold change [1, 7]: −1.57 | hsa-miR-142-3p Log fold change [1, 7]: −0.65 | hsa-miR-142-5p Fold change [1, 7]: −1.55 | hsa-miR-142-5p Log fold change [1, 7]: −0.63 | hsa-miR-143-3p Fold change [1, 7]: −1.96 | hsa-miR-143-3p Log fold change [1, 7]: −0.97 | hsa-miR-152-3p Fold change [1, 7]: −1.37 | hsa-miR-152-3p Log fold change [1, 7]: 0.45 | hsa-miR-155-5p Fold change [1, 7]: 1.31 | hsa-miR-155-5p Log fold change [1, 7]: 0.39 | hsa-miR-192-5p Fold change [1, 7]: −1.47 | hsa-miR-192-5p Log fold change [1, 7]: −0.56 | hsa-miR-340-5p Fold change [1, 7]: −1.47 | hsa-miR-340-5p Log fold change [1, 7]: −0.56 | hsa-miR-532-3p Fold change [1, 7]: 1.51 | hsa-miR-532-3p Log fold change [1, 7]: 0.60 | hsa-miR-574-3p Fold change [1, 7]: 1.36 | hsa-miR-574-3p Log fold change [1, 7]: 0.44 | hsa-miR-1260b Fold change [1, 7]: 2.19 | hsa-miR-1260b Log fold change [1, 7]: 1.13 | hsa-miR-9983-3p Fold change [1, 7]: −1.40 | hsa-miR-9983-3p Log fold change [1, 7]: 0.48 | hsa-miR-10395-3p Fold change [1, 7]: −2.92 | hsa-miR-10395-3p Log fold change [1, 7]: −1.55 | hsa-miR-12135 Fold change [1, 7]: −1.63 | hsa-miR-12135 Log fold change [1, 7]: −0.71 | Number of miRNAs significantly altered ([1]; after rest period, prior to LPS challenge): 51 | LPS-induced lactate production in supernatant [2]: increased lactate production
